{"source": "patent US8653023B1", "about": "“Dual beneficial effect of dopamine enhancing and neuroprotective actions of PKC delta inhibitors for treatment of Parkinson's disease” (Iowa State University Research Foundation, Inc., priority 2006, dated 2014)", "key": {"[1]": {"test_system": "tyrosine hydroxylase (TH)", "assay": "TH phosphorylation in PC12 cells (immunoblot, immunofluorescence)", "assay_type": "cell-based", "settings": "3 μM rottlerin for 3 hr", "experimental": "PC12 cells, differentiated N27 dopaminergic cells and primary mesencephalic neurons were exposed to 1-10 μM rottlerin for the duration of the experiment. DMSO (0.01%) was used as vehicle control. PKCδ-DN- and Lac Z-expressing N27 cells were only treated with 0.01% DMSO. […] Untreated or vehicle treated cells were used as control samples.\nCell and brain lysates containing equal amounts of protein were loaded in each lane and separated on a 10-12% SDS-PAGE gel as described previously (Kaul et al., 2003). After the separation, proteins were transferred to nitrocellulose membrane, and nonspecific binding sites were blocked by treating with 5% nonfat dry milk powder. The membranes were then treated with primary antibodies directed against PKCδ (rabbit polyclonal or mouse monoclonal, 1:2000 dilution), TH (rabbit polyclonal or mouse monoclonal, 1:1000), phospho TH-ser40 (rabbit polyclonal, 1:1000), phospho TH-ser31 TH (rabbit polyclonal, 1:1000), or PP2A (mouse monoclonal, 1:1000). The primary antibody treatments were followed by treatment with secondary HRP-conjugated anti-rabbit or anti-mouse IgG (1:2000) for 1 hr at RT. Secondary antibody-bound proteins were detected using Amersham's ECL chemiluminescence kit. To confirm equal protein loading, blots were reprobed with a β-actin antibody (1:5000 dilution). Western blot images were captured with a Kodak 2000 MM imaging system and data were analyzed using 1D Kodak imaging analysis software.\nImmunostaining of PKCδ, TH, Ser40 P-TH and Ser31 P-TH was performed in PC12, N27 and primary mesencephalic neurons. Cells were grown on poly-L-Lysine-coated glass cover slips. After treatment, the cells were fixed with 4% paraformaldehyde and processed for immunohistochemical staining. First, non-specific sites were blocked with 5% normal goat serum containing 0.4% BSA and 0.2% Triton-X 100 in PBS for 20 min. Cells were then incubated with antibodies directed against PKCδ (1:500 dilution), TH (1:500 dilution), and P-THSer40 (1:500 dilution) overnight at 4° C. followed by incubation with either Alexa 488-conjugated (green, 1:1000) or Cy3-conjugated (red, 1:1000) secondary antibody for 1 hr at RT. Secondary antibody treatments were followed by incubation with Hoechst 33342 (10 μg/ml) for 3 min at room temperature to stain the nucleus. Then the coverslips containing stained cells were washed with PBS, mounted on a slide, and viewed under a Nikon inverted fluorescence microscope (Model TE-2000U); images were captured with a SPOT digital camera (Diagnostic Instruments, Sterling Heights, Mich.)."}, "[2]": {"test_system": "tyrosine hydroxylase (TH)", "assay": "TH-ser40 phosphorylation in primary mesencephalic neurons (immunofluorescence)", "assay_type": "cell-based, mouse", "settings": "PKCδ (+/+) primary neuronal cultures, 3 μM rottlerin for 3 hr", "experimental": "PC12 and N27 cells were cultured as described earlier (Anantharam et al., 2002; Kaul et al., 2003). Briefly, cells were grown in RPMI 1640 medium containing 10% fetal bovine serum, 2 mM L-glutamine, 50 units of penicillin, and 50 μg/ml streptomycin. Cells were maintained in a humidified atmosphere of 5% CO2 at 37° C. N27 cells were differentiated with 2 mM dibutyryl cAMP for 3-5 days and then used for experiments described below. Primary mesencephalic neuronal cultures were prepared from the ventral mesencephalon of gestational 16-18-day-old mice embryos as described previously (Yang et al., 2004). Mesencephalic tissues were dissected and maintained in ice-cold Ca^2+-free HESS and then dissociated in HBSS solution containing trypsin-EDTA (0.25%) for 20 min at 37° C. The dissociated cells were then plated at equal density (0.5×10^6 cells) in 30-mm-diameter tissue culture wells precoated with poly-L-lysine (1 mg/ml). […]\nPlasmid pPKCδ^K376R-V5 encodes the loss of function PKCδ-V5 epitope tagged mutant protein; K376R refers to the mutation of the lysine residue at position 376 to arginine in the catalytic site resulting in inactivation of the kinase. […] Transfection efficiency was >75% as determined by immunostaining of V5-expression. […]"}, "cells": {"test_system": "cells", "settings": "cited from earlier work"}, "dopaminergic N27 cells": {"test_system": "dopaminergic N27 cells", "settings": "cited from earlier work"}, "PKA": {"test_system": "PKA", "settings": "cited from earlier work"}, "PKCα or PKCβ": {"test_system": "PKCα or PKCβ", "settings": "cited from earlier work"}, "NZM mice": {"test_system": "NZM mice", "settings": "in vivo treatment; cited from earlier work"}}, "data": [{"smiles": "CC(=O)c1c(O)c(C)c(O)c(Cc2c(O)c3c(c(C(=O)/C=C/c4ccccc4)c2O)OC(C)(C)C=C3)c1O", "note": "[rottlerin]", "values": [{"measurement": "TH-ser40 phosphorylation, densitometry of 60 kDa band, increase versus vehicle", "setting": "[1]", "result": 3, "unit": "fold"}, {"measurement": "THser31 phosphorylation level", "setting": "[1]", "result": "unaltered"}, {"measurement": "level of total TH", "setting": "[1]", "result": "unaltered"}, {"measurement": "increase in TH-ser40 stained cells compared to DMSO-treated cells", "setting": "[1]; immunofluorescence cell count", "result": 333, "unit": "%"}, {"measurement": "TH-ser40 fluorescent intensity, increase", "setting": "[2]", "result": 4, "unit": "fold"}, {"measurement": "asbestos-induced apoptosis", "setting": "cells", "result": "inhibited"}, {"measurement": "H2O2 and MPP+-induced apoptotic cell death (genistein: also PKCδ cleavage, kinase activation)", "setting": "dopaminergic N27 cells", "result": "dramatically inhibited"}, {"measurement": "inhibition", "setting": "PKA", "result": "weak inhibitor"}, {"measurement": "fold more potent on PKCδ than on PKCα or PKCβ", "setting": "PKCα or PKCβ", "result": "5- to 10 fold"}, {"measurement": "exacerbation of autoimmunity by silica exposure", "setting": "NZM mice", "result": "significantly decreased"}]}]}
